For data set [1], the system named is caterpillars of the army worm (Spodoptera exigua). In words: Spodoptera exigua test (leaf dip). Type of data set: in vivo. Here is the method:
(§1) Spodoptera exigua Test Solvent: 7 parts by weight of dimethylformamide Emulsifier: 2 parts by weight of alkylaryl polyglycol ether To produce a suitable preparation of active compound, 1 part by weight of active compound is mixed with the stated amounts of solvent and emulsifier and the concentrate is diluted with emulsifier-containing water to the desired concentration. Cabbage leaves (Brassica oleracea) are treated by being dipped into the active compound preparation of the desired concentration and populated with caterpillars of the army worm (Spodoptera exigua) while the leaves are still moist. After the desired period of time, the kill in % is determined. 100% means that all caterpillars have been killed; 0% means that none of the caterpillars have been killed.

The test system of data set [2] is caterpillars of the army worm (Spodoptera frugiperda). The experiment in a line: Spodoptera frugiperda test (SPODFR spray treatment). Type of data set: in vivo. The following applies: for Kill rate after 7d in %: spray treatment. Here is the method:
Spodoptera frugiperda Test (SPODFR Spray Treatment) Solvents: 78 parts by weight of acetone • • 1.5 parts by weight of dimethylformamide Emulsifier: 0.5 part by weight of alkylaryl polyglycol ether To produce a suitable preparation of active compound, 1 part by weight of active compound is mixed with the stated amounts of solvents and emulsifier and the concentrate is diluted with emulsifier-containing water to the desired concentration. Discs of maize leaves (Zea mays) are sprayed with an active compound preparation of the desired concentration and after drying populated with caterpillars of the army worm (Spodoptera frugiperda). After the desired period of time, the activity in % is determined. 100% means that all of the caterpillars have been killed; 0% means that none of the caterpillars have been killed.

Data set [3] relates to Spodoptera frugiperda larvae. In words: Spodoptera frugiperda test (treatment by watering). The following applies: for Kill rate after 14d in %: 20 ppm, treatment by watering. It counts as in vivo. Here is the method: Spodoptera frugiperda Test Solvent: 7 parts by weight of dimethylformamide Emulsifier: 2 parts by weight of alkylaryl polyglycol ether To produce a suitable preparation of active compound, 1 part by weight of active compound is mixed with the stated amounts of solvent and emulsifier and the concentrate is diluted with water to the desired concentration. Maize plants (Zea mays) are watered with an active compound preparation of the desired concentration and infected with Spodoptera frugiperda larvae. After the desired period of time, the kill in % is determined. 100% means that all larvae have been killed; 0% means that none of the larvae have been killed.

Data set [4] relates to caterpillars of the diamondback moth (Plutella xylostella). The experiment in a line: Plutella test (leaf dip). Type of data set: in vivo. Here is the method:
as §1, with “Plutella” for “Spodoptera exigua”, “Cabbages” for “Cabbage”, “diamondback moth (Plutella xylostella)” for “army worm (Spodoptera exigua)”

Data set [5] concerns Spodoptera exigua, resistant strain. The experiment in a line: Spodoptera exigua test; resistant strain. It counts as in vivo. Here is the method: Spodoptera exigua Test; Resistant Strain
Solvent: 7 parts by weight of dimethylformamide
Emulsifier: 2 parts by weight of alkylaryl polyglycol ether
To produce a suitable preparation of active compound, 1 part by weight of active compound is mixed with the stated amounts of solvent and emulsifier and the concentrate is diluted with emulsifier-containing water to the desired concentration.
Cabbage leaves (Brassica oleracea) are treated by being dipped into the active compound preparation of the desired concentration and populated with caterpillars of the army worm (Spodoptera exigua, resistant strain) while the leaves are still moist.
After the desired period of time, the kill in % is determined. 100% means that all caterpillars have been killed; 0% means that none of the caterpillars have been killed.

In data set [6] the test system is larvae of the mustard beetle (Phaedon cochleariae). In words: Phaedon test (sprayed Chinese cabbage discs). It counts as in vivo. Here is the method:
(§2) Phaedon Test Solvents: 78 parts by weight of acetone • • 1.5 parts by weight of dimethylformamide Emulsifier: 0.5 part by weight of alkylaryl polyglycol ether To produce a suitable preparation of active compound, 1 part by weight of active compound is mixed with the stated amounts of solvents and emulsifier and the concentrate is diluted with emulsifier-containing water to the desired concentration. Discs of Chinese cabbage (Brassica pekinensis) are sprayed with an active compound preparation of the desired concentration and, after drying, populated with larvae of the mustard beetle (Phaedon cochleariae). After the desired period of time, the activity in % is determined. 100% means that all beetle larvae have been killed; 0% means that none of the beetle larvae have been killed.

Data set [7] deals with green peach aphid (Myzus persicae). In words: Myzus test; oral. It counts as in vivo. Here is the method: Myzus Test; Oral Solvent: 80 parts by weight of acetone To produce a suitable preparation of active compound, 1 part by weight of active compound is mixed with the stated amounts of solvent and the concentrate is diluted with water to the desired concentration. Vessels are populated with all stages of the green peach aphid (Myzus persicae) which are treated by sucking the active compound preparation of the desired concentration. After the desired period of time, the activity in % is determined. 100% means that all aphids have been killed; 0% means that none of the aphids have been killed.

For data set [8], the system named is caterpillars of the cotton bollworm (Heliothis armigera). The experiment in a line: Heliothis armigera test (leaf dip). Type of data set: in vivo. The following applies: for Kill rate after 7d in %: 20 ppm. Here is the method:
as §1, with “Heliothis armigera” for “Spodoptera exigua”, “Soya bean” for “Cabbage”, “(Glycine max.)” for “(Brassica oleracea)”, “cotton bollworm (Heliothis armigera)” for “army worm (Spodoptera exigua)”

A short description of data set [9]: logP determination by HPLC (reversed-phase C18), EEC Directive 79/831 Annex V.A8. The following applies: HPLC reversed-phase C18, 43° C., acidic range pH 2.7. It counts as physicochemical. Here is the method:
The logP values given in the tables and Preparation Examples above are determined in accordance with EEC Directive 79/831 Annex V.A8 by HPLC (High Performance Liquid Chromatography) on a reversed-phase column (C 18). Temperature: 43° C. The determination by LC-MS in the acidic range is carried out at pH 2.7 using 0.1% aqueous formic acid and acetonitrile (contains 0.1% formic acid) as mobile phases; linear gradient from 10% acetonitrile to 95% acetonitrile. Calibration is carried out using unbranched alkan-2-ones (having 3 to 16 carbon atoms) with known logP values (determination of the logP values by the retention times using linear interpolation between two successive alkanones).

Data set [10] relates to Diabrotica undecimpunctata. In words: Diabrotica undecimpunctata (DIABUN) test (eggs). Type of data set: in vivo. The conditions noted are these: for Kill rate after 2-5d in %: 300 ppm, eggs. Here is the method: (§3) Diabrotica undecimpunctata (DIABUN) Solvents: 1% of N-methylpyrrolidone (NMP) • 1% of diacetone alcohol Dye: brilliant sulphoflavin for staining the water To produce a suitable preparation of active compound, the active compound is mixed with the stated amounts of solvents and the concentrate is diluted with stained water to the desired concentration. The eggs (Diabrotica undecimpunctata) are treated with an active compound preparation of the desired concentration. After the desired period of time, the activity in % is determined. 100% means that all animals have been killed; 0% means that none of the animals have been killed.

Another data set deals with Myzus persicae. In words: Myzus persicae test (ingestion of active compound preparation). Type of data set: in vivo. The conditions noted are these: for Kill rate after 6-7d in %: 30 ppm, ingestion. Here is the method: Myzus persicae Test Solvents: 1% of N-methylpyrrolidone (NMP) • 1% of diacetone alcohol Dye: brilliant sulphoflavin for staining the water To produce a suitable preparation of active compound, the active compound is mixed with the stated amounts of solvents and the concentrate is diluted with stained water to the desired concentration. The Myzus persicae are provided with an active compound preparation of the desired concentration for ingestion. After the desired period of time, the activity in % is determined. 100% means that all aphids have been killed; 0% means that none of the aphids have been killed.

The next data set relates to Heliothis virescens. In words: Heliothis virescens test (eggs). It counts as in vivo. The conditions noted are these: for Kill rate after 6-7d in %: 300 ppm, eggs. Here is the method:
as §3, with “Heliothis virescens” for “Diabrotica undecimpunctata (DIABUN)”, “(Heliothis virescens)” for “(Diabrotica undecimpunctata)”

For data set [11], the system named is green peach aphid (Myzus persicae). The experiment in a line: Myzus test (MYZUPE spray treatment). It counts as in vivo. Here is the method:
as §2, with “Myzus” for “Phaedon”, “Test (MYZUPE Spray Treatment)” for “Test”, “pekinensis), which are infested by all stages of the green peach aphid (Myzus persicae)” for “pekinensis)”, “concentration.” for “concentration and, after drying, populated with larvae of the mustard beetle (Phaedon cochleariae).”, “aphids” for “beetle larvae”

Data on five molecules can be found in patent publication US8062995B2, “Dioxazine-substituted arylamides” (Bayer CropScience AG, priority 2005, dated 2011).

As to `O=C(Nc1c(Cl)cc(Cl)cc1C1=NOCCO1)c1cc(C(F)(F)F)nn1-c1cccc(Cl)n1` [Example I-1-1], the “activity in the Spodoptera exigua test (in words)” value in [1] is “good activity”. The “Kill rate after 7d in %” value in data set [1] (20 ppm, 7 d) is given as 100%; in [2] (500 g/ha), 100%; in data set [4] (100 ppm, 7 d), 100%; in data set [5] (100 ppm, 7 d, resistant strain) it was 100%; in data set [6] (500 g/ha), 100%; in [8] it was 100%. For the same molecule, the “activity in the Spodoptera frugiperda test, spray treatment (in words)” value in data set [2] is given as “good activity”. The “activity in the Spodoptera frugiperda test, watering (in words)” value in [3] is “good activity”. Further, in [3], the “Kill rate after 14d in %” value is recorded as 95%. In addition, in data set [4], the “activity in the Plutella test (in words)” value is reported as “good activity”. In data set [5], the “activity in the Spodoptera exigua test, resistant strain (in words)” value is “good activity”. The “activity in the Phaedon test (in words)” value in data set [6] is “good activity”. In addition, in data set [7], the “activity in the Myzus test, oral (in words)” value is listed as “good activity”. The “activity in the Heliothis armigera test (in words)” value in data set [8] was “good activity”.
The logP is a log measure of how a compound divides between an organic and an aqueous phase. With `Cc1cc(Cl)cc(C2=NOCCO2)c1NC(=O)c1cc(Br)nn1-c1ncccc1Cl` [Example I-1-5], the lipophilicity (logP) in data set [9] was 3.13. Moreover, the “activity in the Spodoptera frugiperda test, spray treatment (in words)” value in data set [2] is reported as “good activity”. Besides, the “Kill rate after 7d in %” value in data set [2] (100 g/ha) is on record as 100%; in data set [6] (100 g/ha), 83%. Moreover, the “activity in the Diabrotica undecimpunctata test (in words)” value in data set [10] is given as “good activity”. Also, in [10], the “Kill rate after 2-5d in %” value turned out to be 100%. Further, the “activity in the Phaedon test (in words)” value in data set [6] is “good activity”.
Turning to `Cc1cccc(C2=NOCCO2)c1NC(=O)c1cc(Cl)nn1-c1ncccc1Cl` [Example I-1-7], in the data set on Myzus persicae, the “activity in the Myzus persicae test (in words)” value is reported as “good activity” and the “Kill rate after 6-7d in %” value is recorded as 100%. In addition, the logP in data set [9] is reported as 2.54. Moreover, in the data set with Heliothis virescens, the “activity in the Heliothis virescens test (in words)” value was “good activity” and the “Kill rate after 6-7d in %” value is on record as 100%. Besides, the “activity in the Spodoptera frugiperda test, spray treatment (in words)” value in data set [2] is on record as “good activity”. In addition, the “Kill rate after 7d in %” value in [2] (100 g/ha) is given as 100%.
With `Cc1cc(Cl)cc(C2=NOCCO2)c1NC(=O)c1cc(Cl)nn1-c1ncccc1Cl` [Example I-1-9], in the data set on Myzus persicae, the “activity in the Myzus persicae test (in words)” value is given as “good activity” and the “Kill rate after 6-7d in %” value is given as 100%. The molecule also registered a logP in [9] of 3.08. In addition, in the data set on Heliothis virescens, the “activity in the Heliothis virescens test (in words)” value is reported as “good activity” and the “Kill rate after 6-7d in %” value was 100%. In data set [2], the “activity in the Spodoptera frugiperda test, spray treatment (in words)” value was “good activity”. Moreover, the “Kill rate after 7d in %” value in [2] (100 g/ha) turned out to be 100%. Further, in data set [10], the “activity in the Diabrotica undecimpunctata test (in words)” value was “good activity” and the “Kill rate after 2-5d in %” value turned out to be 100%. Moreover, in [3], the “activity in the Spodoptera frugiperda test, watering (in words)” value was “good activity” and the “Kill rate after 14d in %” value was 95%. The “activity in the Phaedon test (in words)” value in [6] is “good activity”. The “Kill rate after 7d in %” value in data set [6] (100 g/ha) is on record as 100%. Further, in data set [8], the “activity in the Heliothis armigera test (in words)” value was “good activity” and the “Kill rate after 7d in %” value stood at 80%.
`Cc1cc(I)cc(C2=NOCCN2)c1NC(=O)c1cc(C(F)(F)F)nn1-c1ncccc1Cl` [Example I-1-24] displayed a logP in data set [9] of 2.66. Further, in [11], the “activity in the Myzus test, spray treatment (in words)” value is reported as “good activity”. Also, the “Kill rate after 5d in %” value in data set [11] (100 g/ha, 5 d, spray treatment) was 90%; in data set [7] (100 ppm, 5 d, oral) it was 100%. For the same molecule, the “activity in the Spodoptera frugiperda test, spray treatment (in words)” value in data set [2] is “good activity”. In addition, the “Kill rate after 7d in %” value in [2] (100 g/ha) and in data set [6] (100 g/ha) was 100% each time. The “activity in the Phaedon test (in words)” value in data set [6] was “good activity”. For the same molecule, in data set [7], the “activity in the Myzus test, oral (in words)” value was “good activity”.
